Measurements: PMC8179433, “Rational designing of glyco-nanovehicles to target cellular heterogeneity” (Chemical Science, 2021)
Read-outs that look alike come from different tables or passages of the source.

Tests used:
[1] = biological target: T1, HB-EGF (Homo sapiens, UniProt Q99075); assay: SPR; also competition ELISA against immobilized heparin (IC50 =[…]); assay type: binding
T1 construct: gene HBEGF

[2] = biological target: T1, HB-EGF; assay: as above; assay type: binding; remark: listed apart in the source

T1 sequence (Q99075 63-148): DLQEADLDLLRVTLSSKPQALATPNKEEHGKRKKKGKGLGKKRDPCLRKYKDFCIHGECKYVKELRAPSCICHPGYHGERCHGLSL

Row | Kd [1] [µM] | Kd [2] [µM] | Compound
1 | 11.1 | – | CC(=O)N[C@H]1[C@@H](O[C@H]2[C@H](O)[C@@H](O)[C@H](OCCCN)O[C@H]2C(=O)O)O[C@H](COP(=O)(O)O)[C@@H](O[C@@H]2O[C@@H](C(=O)O)[C@@H](O[C@H]3O[C@H](COP(=O)(O)O)[C@@H](O)[C@H](O)[C@H]3NC(C)=O)[C@H](O)[C@H]2O)[C@@H]1O [compound 8, 6-O-phosphated HS tetrasaccharide (8)]
2 | – | 11.1 | CC(=O)N[C@H]1[C@@H](O[C@H]2[C@H](O)[C@@H](O)[C@H](OCCCN)O[C@H]2C(=O)O)O[C@H](COS(=O)(=O)O)[C@@H](O[C@@H]2O[C@@H](C(=O)O)[C@@H](O[C@H]3O[C@H](COS(=O)(=O)O)[C@@H](O)[C@H](O)[C@H]3NC(C)=O)[C@H](O)[C@H]2O)[C@@H]1O [compound 7, 6-O-S HS tetrasaccharide (7)]
